According to ChEMBL document CHEMBL3817831, “Ionophoric polyphenols selectively bind Cu(2+), display potent antioxidant and anti-amyloidogenic properties, and are non-toxic toward Tetrahymena thermophila” (Bioorg Med Chem, 2016):
Active and inactive are the calls of the source. The calls are words filed in the database; no cut-off is given here.

What was measured:
[1] = Binding affinity to Zn2+ using ZnCl2 at 20 uM after 5 mins by spectrophotometry
[2] = Binding affinity to Fe2+ using FeCl2 at 20 uM after 5 mins by spectrophotometry
[3] = Binding affinity to Ca2+ using CaCl2 at 20 uM after 5 mins by spectrophotometry
[4] = Binding affinity to Mn2+ using MnCl2 at 20 uM after 5 mins by spectrophotometry
[5] = Binding affinity to Mg2+ using MgSO4 at 20 uM after 5 mins by spectrophotometry
[6] = Binding affinity to Cu2+ using CuCl2 at 10 uM after 5 mins by spectrophotometric titration assay
[7] = biological target: Amyloid-beta precursor protein (Homo sapiens) (UniProt P05067); experiment: Binding affinity to amyloid beta (1 to 40) (unknown origin) by tyrosine fluorimetric titration assay
[8] = Inhibition of Cu2+-amyloid beta (1 to 40) catalyzed generation of hydroxyl radical assessed as 7-hrdroxy-CCA formation at 2 equiv preincubated for 1 hr followed by CCA addition measured over 60 mins by fluorescence assay
[9] = Inhibition of Cu2+-amyloid beta (1 to 40) catalyzed generation of hydroxyl radical assessed as rate of radical formation per min at 2 equiv preincubated for 1 hr followed by CCA addition measured over 60 mins by CCA based fluorescence assay (reference value: 13 +/- 0.2 a.u.)
[10] = Antioxidant activity assessed as DPPH free radical scavenging activity after 30 mins by spectrophotometry; format: physicochemical
[11] = Ratio of resveratrol IC50 to compound IC50 for DPPH free radical scavenging activity
[12] = Antioxidant activity assessed as AAPH radical scavenging activity preincubated for 30 mins followed by AAPH addition measured after 60 mins by ORAC assay; format: physicochemical
[13] = Ratio of resveratrol IC50 to compound IC50 for AAPH radical scavenging activity
[14] = Inhibition of Cu2+-induced amyloid beta (1 to 40) aggregation at 100 uM preincubated for 5 mins followed by amyloid beta (1 to 40) addition measured after 18 days at pH 6.60 by thioflavin-T fluorescence assay
[15] = Inhibition of Cu2+-induced amyloid beta (1 to 40) fibril aggregation assessed as remaining fibril aggregates at 100 uM preincubated for 5 mins followed by amyloid beta (1 to 40) addition measured after 3 days at pH 6.60 by thioflavin-T fluorescence assay
[16] = Inhibition of Cu2+-induced amyloid beta (1 to 40) fibril aggregation assessed as remaining fibril aggregates at 100 uM preincubated for 5 mins followed by amyloid beta (1 to 40) addition measured after 7 days at pH 6.60 by thioflavin-T fluorescence assay
[17] = biological target: Amyloid-beta precursor protein (Homo sapiens) (UniProt P05067); experiment: Inhibition of self-induced amyloid beta (1 to 40) (unknown origin) fibril aggregation assessed as remaining fibril aggregates at 100 uM after 3 days at pH 6.60 by thioflavin-T fluorescence assay
[18] = biological target: Amyloid-beta precursor protein (Homo sapiens) (UniProt P05067); experiment: Inhibition of self-induced amyloid beta (1 to 40) (unknown origin) fibril aggregation assessed as remaining fibril aggregates at 100 uM after 7 days at pH 6.60 by thioflavin-T fluorescence assay
[19] = Inhibition of preformed Cu2+-induced amyloid beta (1 to 40) fibril aggregation assessed as remaining fibril aggregates at 100 uM after 4 days at pH 6.60 by thioflavin-T fluorescence assay
[20] = Inhibition of preformed Cu2+-induced amyloid beta (1 to 40) fibril aggregation assessed as remaining fibril aggregates at 100 uM after 12 days at pH 6.60 by thioflavin-T fluorescence assay
[21] = biological target: Amyloid-beta precursor protein (Homo sapiens) (UniProt P05067); experiment: Inhibition of preformed self-induced amyloid beta (1 to 40) (unknown origin) fibril aggregation assessed as remaining fibril aggregates at 100 uM after 4 days at pH 6.60 by thioflavin-T fluorescence assay
[22] = biological target: Amyloid-beta precursor protein (Homo sapiens) (UniProt P05067); experiment: Inhibition of preformed self-induced amyloid beta (1 to 40) (unknown origin) fibril aggregation assessed as remaining fibril aggregates at 100 uM after 12 days at pH 6.60 by thioflavin-T fluorescence assay
[23] = Toxicity in Tetrahymena thermophila assessed as reduction in cell viability after 48 hrs by MTT assay; format: organism-based; settings: Tetrahymena thermophila cells, read-out: LD50
[24] = Binding affinity to Cu2+ using CuCl2 after 5 mins by spectrophotometry
[25] = Inhibition of Cu2+-induced amyloid beta (1 to 40) fibril aggregation at 100 uM preincubated for 5 mins followed by amyloid beta (1 to 40) addition measured after 18 days by turbidity assay
[26] = biological target: Amyloid-beta precursor protein (Homo sapiens) (UniProt P05067); experiment: Induction of self-induced amyloid beta (1 to 40) (unknown origin) fibril aggregation at 100 uM after 3 days by turbidity assay
[27] = biological target: Amyloid-beta precursor protein (Homo sapiens) (UniProt P05067); experiment: Inhibition of self-induced amyloid beta (1 to 40) (unknown origin) fibril aggregation at 100 uM after 7 to 18 days by turbidity assay
[28] = Inhibition of preformed Cu2+-induced amyloid beta (1 to 40) fibril aggregation at 100 uM after 12 days by turbidity assay relative to control
[29] = Inhibition of preformed Cu2+-induced amyloid beta (1 to 40) fibril aggregation at 100 uM after 12 days by turbidity assay relative to total turbidity of amyloid beta (1 to 40) aggregates
[30] = biological target: Amyloid-beta precursor protein (Homo sapiens) (UniProt P05067); experiment: Induction of preformed self-induced amyloid beta (1 to 40) (unknown origin) fibril aggregation at 100 uM after 4 days by turbidity assay
[31] = biological target: Amyloid-beta precursor protein (Homo sapiens) (UniProt P05067); experiment: Inhibition of preformed self-induced amyloid beta (1 to 40) (unknown origin) fibril aggregation at 100 uM after 12 days by turbidity assay relative to control
[32] = Inhibition of preformed Cu2+-induced amyloid beta (1 to 40) fibril aggregation at 100 uM after 4 to 12 days by turbidity assay relative to control
[33] = Induction of preformed Cu2+-induced amyloid beta (1 to 40) fibril aggregation at 100 uM after 4 to 12 days by turbidity assay relative to control
[34] = Induction of Cu2+-induced amyloid beta (1 to 40) fibril aggregation at 100 uM preincubated for 5 mins followed by amyloid beta (1 to 40) addition measured after 3 to 7 days by turbidity assay
[35] = Binding affinity to Cu2+ assessed as compound-metal adduct formation

Sequence of Amyloid-beta precursor protein (Homo sapiens) (P05067 whole entry): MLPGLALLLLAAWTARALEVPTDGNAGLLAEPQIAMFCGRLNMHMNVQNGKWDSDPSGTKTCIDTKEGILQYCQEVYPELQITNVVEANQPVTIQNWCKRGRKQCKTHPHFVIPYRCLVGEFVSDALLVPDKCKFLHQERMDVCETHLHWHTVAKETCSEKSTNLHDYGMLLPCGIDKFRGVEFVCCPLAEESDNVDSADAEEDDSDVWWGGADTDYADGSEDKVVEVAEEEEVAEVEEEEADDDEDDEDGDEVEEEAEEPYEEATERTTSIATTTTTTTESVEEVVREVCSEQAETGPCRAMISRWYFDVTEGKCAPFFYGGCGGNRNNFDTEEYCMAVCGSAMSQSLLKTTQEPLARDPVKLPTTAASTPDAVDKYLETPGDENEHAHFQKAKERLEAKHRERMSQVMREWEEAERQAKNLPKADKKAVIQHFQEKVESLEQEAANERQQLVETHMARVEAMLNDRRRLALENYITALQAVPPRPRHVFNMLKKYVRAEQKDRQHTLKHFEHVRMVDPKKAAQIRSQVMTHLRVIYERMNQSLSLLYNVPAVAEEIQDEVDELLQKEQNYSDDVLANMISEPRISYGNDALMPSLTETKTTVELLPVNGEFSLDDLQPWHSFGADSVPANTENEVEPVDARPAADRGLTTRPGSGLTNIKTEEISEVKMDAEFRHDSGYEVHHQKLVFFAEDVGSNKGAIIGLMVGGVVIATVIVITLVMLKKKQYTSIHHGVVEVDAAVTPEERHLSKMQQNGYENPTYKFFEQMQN

With Oc1ccccc1/N=C/c1c(O)ccc2ccccc12 the Activity [1] was “inactive”, the Activity [2] was “inactive” and the Activity [3] was “inactive”. The Activity [4] was “inactive”, the Activity [5] was “inactive” and the Activity [6] was “Active”. It also gave a Ka [7] of 1.91 ×10⁵ /M, an inhibition [8] of 100% and an Activity [9] of 0 a.u. The IC50 [10] was 38.5 µM, the Ratio IC50 [11] was 0.5 and the IC50 [12] was 11.5 µM. The Ratio IC50 [13] was 0.1, the inhibition [14] was “Active” and the Activity [15] was 41.5%. For the same compound, the Activity [16] was 33.7%, the Activity [17] was 22.6% and the Activity [18] was 13.9%. The Activity [19] was 66.4%, the Activity [20] was 42.8% and the Activity [21] was 36.2%. The Activity [22] was 26.6%, the LC50 at 48 h [23] was 158 µM and the logKa [24] was 14. The inhibition [25] was “Active”, the Activity [26] was “Active” and the inhibition [27] was “Active”. The inhibition [28] was < 57%, the inhibition [29] was < 22% and the Activity [30] was “Active”. The inhibition [31] was 25%.

With Oc1ccc(/C=C/c2cc(O)cc(O)c2)cc1 [RESVERATROL] the Activity [1] was “inactive”, the Activity [2] was “Active” and the Activity [3] was “inactive”. For the same compound, the Activity [4] was “inactive”, the Activity [5] was “inactive” and the Ka [7] was 1.65 ×10⁵ /M. For the same compound, the inhibition [8] was 9%, the Activity [9] was 11.2 a.u and the IC50 [10] was 17.8 µM. The IC50 [12] was 1.7 µM, the Activity [15] was 25.9% and the Activity [16] was 16.1%. The Activity [17] was 7.48%, the Activity [18] was 4.25% and the Activity [19] was 239%. It also gave an Activity [20] of 144%, an Activity [21] of 100% and an Activity [22] of 24.1%. The LC50 at 48 h [23] was 274 µM, the logKa [24] was 6.7 and the Activity [26] was “Active”. For the same compound, the inhibition [32] was “inactive”.

For Oc1ccc(/N=C/c2c(O)ccc3ccccc23)c(O)c1, the Activity [1] was “inactive”, the Activity [2] was “inactive” and the Activity [3] was “inactive”. For the same compound, the Activity [4] was “inactive”, the Activity [5] was “inactive” and the Activity [6] was “Active”. It also gave a Ka [7] of 2.46 ×10⁵ /M, an inhibition [8] of 98.5% and an Activity [9] of 0.03 a.u. It also gave an IC50 [10] of 13.5 µM, a Ratio IC50 [11] of 1.3 and an IC50 [12] of 3.15 µM. For the same compound, the Ratio IC50 [13] was 0.5, the inhibition [14] was “Active” and the Activity [15] was 7.85%. For the same compound, the Activity [16] was 10.9%, the Activity [17] was 6.51% and the Activity [18] was 6.21%. The Activity [19] was 46%, the Activity [33] was “Active” and the Activity [20] was 47.3%. For the same compound, the Activity [21] was 14.4%, the Activity [22] was 11% and the Activity [34] was 47%. The LC50 at 48 h [23] was 265 µM, the logKa [24] was 14.3 and the inhibition [25] was “Active”. The Activity [26] was “Active”, the inhibition [27] was “Active” and the Activity [30] was “Active”. The inhibition [31] was “Active”.

For Oc1c(I)cc(Cl)c2cccnc12 [CLIOQUINOL], the Activity [1] was “Active”, the Activity [2] was “Active” and the Activity [3] was “Active”. The Activity [4] was “Active”, the Activity [5] was “Active” and the Ka [7] was 3.69 ×10⁵ /M. The inhibition [8] was 87.7%, the Activity [9] was 1.2 a.u and the IC50 [10] was 40.6 µM. The Ratio IC50 [11] was 0.4, the IC50 [12] was 9.72 µM and the Ratio IC50 [13] was 0.2. It also gave an Activity [15] of 250%, an Activity [16] of 196% and an Activity [17] of 120%. For the same compound, the Activity [18] was 112%, the Activity [33] was “Active” and the Activity [21] was 170%. The Activity [22] was 310%, the LC50 at 48 h [23] was 240 µM and the logKa [35] was 10. It also gave a logKa [24] of 15.6.
